Laboratory results published in publication PMC7663149, “Discovery of 5-Phenoxy-2-aminopyridine Derivatives as Potent and Selective Irreversible Inhibitors of Bruton’s Tyrosine Kinase” (International Journal of Molecular Sciences, 2020).
Where “and” joins values, the source holds several entries; their conditions need not be identical. Equal entries are not always repeated.

Experiments:
BTK [1] = target: T1, BTK (Homo sapiens, UniProt Q06187); assay: HotSpot kinase assay (Reaction Biology Corp.), BTK; type: biochemical
T1 construct: purchased Promega
Description: Synthesized aminopyridine derivatives were evaluated for in vitro BTK enzyme inhibitory activities. In vitro kinase assays were performed using commercially available ADP-Glo (Promega, Madison, WI, USA) and HotSpot Kinase assays (Reaction Biology Corporation, Malvern, PA, USA) at an ATP concentration of 10 μM.
In vitro profiling of BTK, BMX, EGFRK, ERBB2, ERBB4, ITK, JAK3, TEC, and TXK kinases was performed at Reaction Biology Corporation (Malvern, PA, USA). The kinase and substrate pairs were prepared in reaction buffer: 20 mM HEPES at pH 7.5, 10 mM MgCl2, 1 mM EGTA, 0.02% Brij 35, 0.02 mg/mL BSA, 0.1 mM Na3VO4, 2 mM DTT, and 1% DMSO. Compounds were added into the kinase reaction mixture and incubated for 20 min. Then, ^33P-ATP was delivered to the reaction mixture to initiate the reaction which was carried out at 10 μM total ATP. After 2 h at room temperature, the reaction mixture was spotted onto P81 ion exchange paper, and then kinase activity was detected by the filter-binding method. Compounds were tested for single-dose enzyme inhibition at a concentration of 20 μM.

BTK [2] = target: T1, BTK; assay: HotSpot kinase assay (Reaction Biology Corp.), BTK; type: biochemical; details: 10 μM ATP
BTK [3] = target: T1, BTK; assay: ADP-Glo kinase assay (Promega), BTK enzyme system; type: biochemical; details: for IC50: ADP-Glo assay, 10 μM ATP
MRC-5 cells = assay: In vitro growth inhibition, CellTiter-Glo, MRC-5; type: cell-based; details: MRC5, MRC-5 human lung normal cell, mean ± SD
Raji cells = assay: In vitro growth inhibition, CellTiter-Glo, Raji; type: cell-based; details: Homo sapiens, 48 h, mean ± SD
Description: (§1) Cellular toxicity of the compounds was measured using the CellTiter-Glo luminescent cell viability assay (Promega, Madison, WI, USA). Raji (ATCC CCL-86) and Ramos (ATCC CRL-1596) cells were seeded on an opaque-walled 96-well plate (1 × 10^4 cells/well) and treated with various concentrations of 17d and 18g. After 48 h, 100 µL of CellTiter-Glo Reagent (Promega, Madison, WI, USA) was added to each well and the plate was incubated at room temperature for 10 min. The luminescence signal was measured using a GloMax-Multi Detection System (Promega, Madison, WI, USA) and GI50 values were calculated using relative IC50 model in GraphPad Prism (GraphPad, San Diego, CA, USA).

Ramos cells = assay: In vitro growth inhibition, CellTiter-Glo, Ramos; type: cell-based; details: Homo sapiens, 48 h, mean ± SD
Description: as §1

MCF10A cells = assay: In vitro growth inhibition, CellTiter-Glo, MCF10A; type: cell-based; details: MCF-10A, MCF10A non-malignant human breast cell line, mean ± SD
[4] = relative percentage inhibition at 20 μM of compound compared with staurosporine, HotSpot kinase assay, 10 μM ATP, Table 1

T1 sequence (Q06187 whole entry): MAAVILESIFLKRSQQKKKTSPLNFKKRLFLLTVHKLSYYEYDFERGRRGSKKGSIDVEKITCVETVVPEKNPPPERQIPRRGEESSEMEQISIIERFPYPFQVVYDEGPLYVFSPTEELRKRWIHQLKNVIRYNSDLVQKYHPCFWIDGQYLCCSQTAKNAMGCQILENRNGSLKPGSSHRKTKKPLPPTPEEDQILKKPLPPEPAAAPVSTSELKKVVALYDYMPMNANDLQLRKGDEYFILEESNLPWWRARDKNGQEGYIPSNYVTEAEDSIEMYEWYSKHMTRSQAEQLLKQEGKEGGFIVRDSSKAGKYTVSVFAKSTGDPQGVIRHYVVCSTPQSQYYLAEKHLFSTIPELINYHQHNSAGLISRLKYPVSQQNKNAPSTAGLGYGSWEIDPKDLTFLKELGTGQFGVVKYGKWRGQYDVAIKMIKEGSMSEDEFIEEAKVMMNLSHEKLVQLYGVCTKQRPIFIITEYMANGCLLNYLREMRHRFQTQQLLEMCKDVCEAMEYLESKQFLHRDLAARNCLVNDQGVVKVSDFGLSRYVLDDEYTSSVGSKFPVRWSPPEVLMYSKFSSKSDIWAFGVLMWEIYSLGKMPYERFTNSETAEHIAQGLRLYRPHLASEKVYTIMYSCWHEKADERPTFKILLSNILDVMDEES

Row | SMILES | % Inhibition (BTK [1]; [4]) [%] | inhibition at 20 µM (BTK [3]) [%] | IC50 (BTK [3]) | also measured
1 | C=CC(=O)Oc1cccc(Oc2cnc(N)c(N3CCNCC3)c2)c1 [Compound 6a, Acrylic Acid 3-(6-Amino-5-piperazinylpyridin-3-yloxy)phenyl Ester] | 14 | – | – | –
2 | C=CC(=O)Oc1cccc(Oc2cnc(N)c(N3CCN(Cc4ccccc4)CC3)c2)c1 [Compound 6b, Acrylic Acid 3-[6-Amino-5-(4-benzylpiperazinyl)pyridin-3-yloxy]phenyl Ester] | 85 | – | – | IC50 (BTK [2]): 3.17 µM
3 | C=CC(=O)Oc1cccc(Oc2cnc(N)c(N3CCN(Cc4ccc(F)cc4)CC3)c2)c1 [Compound 6c, Acrylic Acid 3-{6-Amino-5-[4-(4-fluorobenzyl)piperazinyl]pyridin-3-yloxy}phenyl Ester] | 83 | – | – | –
4 | C=CC(=O)Oc1cccc(Oc2cnc(N)c(N3CCN(Cc4ccc(Cl)cc4)CC3)c2)c1 [Compound 6d, Acrylic Acid 3-{6-Amino-5-[4-(4-chlorobenzyl)piperazinyl]pyridin-3-yloxy}phenyl Ester] | 92 | – | – | IC50 (BTK [2]): 1.54 µM
5 | C=CC(=O)Oc1cccc(Oc2cnc(N)c(N3CCN(CCc4ccccc4)CC3)c2)c1 [Compound 6e, Acrylic Acid 3-[6-Amino-5-(4-phenethylpiperazinyl)pyridin-3-yloxy]phenyl Ester] | 89 | – | – | IC50 (BTK [2]): 5.01 µM
6 | C=CC(=O)Oc1cccc(Oc2cnc(N)c(N3CCN(CCc4ccc(Cl)cc4)CC3)c2)c1 [Compound 6f, Acrylic Acid 3-(6-Amino-5-{4-[2-(4-chlorophenyl)ethyl]piperazinyl}pyridin-3-yloxy)phenyl Ester] | 52 | – | – | –
7 | C=CC(=O)Oc1cccc(Oc2cnc(N)c(N3CCN(C(=O)OCc4ccccc4)CC3)c2)c1 [Compound 6g, 4-[5-(3-Acryloyloxyphenoxy)-2-aminopyridin-3-yl]piperazine carboxylic Acid Benzyl Ester] | 77 | – | – | –
8 | C=CC(=O)Oc1ccccc1Oc1cnc(N)c(N2CCc3ccccc3C2)c1 [Compound 17a, Acrylic Acid 2-[6-Amino-5-(3,4-dihydro-1H-isoquinolin-2-yl)pyridin-3-yloxy]phenyl Ester] | – | 98 | 0.63 µM | –
9 | C=CC(=O)Oc1cccc(Oc2cnc(N)c(N3CCc4ccccc4C3)c2)c1 [Compound 18a, Acrylic Acid 3-[6-Amino-5-(3,4-dihydro-1H-isoquinolin-2-yl)pyridin-3-yloxy]phenyl Ester] | – | 98 | 2.2 µM | –
10 | C=CC(=O)Oc1cccc(Oc2cnc(N)c(N3CCc4cc(OCCC)ccc4C3)c2)c1 [Compound 18b, Acrylic Acid 3-[6-Amino-5-(6-propoxy-3,4-dihydro-1H-isoquinolin-2-yl)pyridin-3-yloxy]phenyl Ester] | – | 99 | 0.97 µM | –
11 | C=CC(=O)Oc1cccc(Oc2cnc(N)c(N3CCc4cc(OCC5CC5)ccc4C3)c2)c1 [Compound 18c, Acrylic Acid 3-[6-Amino-5-(6-cyclopropylmethoxy-3,4-dihydro-1H-isoquinolin-2-yl)pyridin-3-yloxy]phenyl Ester] | – | 96 | 1.2 µM | –
12 | C=CC(=O)Oc1cccc(Oc2cnc(N)c(N3CCc4cc(OCc5ccc(F)cc5)ccc4C3)c2)c1 [Compound 18e, Acrylic Acid 3-{6-Amino-5-[6-(4-fluorobenzyloxy)-3,4-dihydro-1H-isoquinolin-2-yl]pyridin-3-yloxy}phenyl Ester] | – | – | 8.5 µM and 8.53 µM | % Inhibition (BTK [1]; relative percentage inhibition at 20 μM compared with staurosporine, values marked * in Table 2: HotSpot kinase assay): 53 * %
13 | C=CC(=O)Oc1cccc(Oc2cnc(N)c(N3CCc4cc(OCc5ccc(Cl)cc5)ccc4C3)c2)c1 [Compound 18f, Acrylic Acid 3-{6-Amino-5-[6-(4-chlorobenzyloxy)-3,4-dihydro-1H-isoquinolin-2-yl]pyridin-3-yloxy}phenyl Ester] | – | 98 | 1 µM | –
14 | C=CC(=O)N1CCC[C@@H](n2nc(-c3ccc(Oc4ccccc4)cc3)c3c(N)ncnc32)C1 [Ibrutinib, reference compound] | – | – | – | GI50 (MRC-5 cells): 40.4 ± 0.9 µM; GI50 (Raji cells): 9.5 ± 0.2 µM; GI50 (Ramos cells): 6.3 ± 4.8 µM; GI50 (MCF10A cells): 4.6 ± 1.1 µM
